{
  "source": "patent US9511134B2",
  "about": "“Inducing immune responses to influenza virus using polypeptide and nucleic acid compositions” (priority 2006, dated 2016)",
  "assay_in_all_cases": "biochemical",
  "type_in_all_cases": "binding",
  "key": {"DRB1*0401": {"target": "T1, DRB1*0401 (Homo sapiens, UniProt P01903+P01911, A100K/A169T/F76Y/I96L/K127E/L162R/M171V/N62H/P40V/Q125Y/R42H/S133A/S149N/S66Y/V115G/V209L/W38E)", "T1 construct": "made in house; host or cells: EBV-transformed homozygous human B cell lines, transfected fibroblasts or single-allele 721.221 transfectants", "details": "read-out: IC50 nM to purified HLA DRB1*0401"}, "DRB1*0101": {"target": "T2, DRB1*0101 (Homo sapiens, UniProt P01903+P01911, A100R/D57E/F55L/F60I/F76Y/I96L/L162R/M171V/P40L/Q125E/R42F/V115G/Y59C)", "T2 construct": "made in house; host or cells: EBV-transformed homozygous human B cell lines, transfected fibroblasts or single-allele 721.221 transfectants", "details": "IC50 nM to purified HLA DRB1*0101"}, "DRB1*1302": {"target": "DRB1*1302 (Homo sapiens, UniProt P01903+P01911, A100E/A169T/K41T/L162R/M171V/P40S/Q125H/Q178H/Q39Y/Q99D/R42S/S66N/T262R/V115G/W38E/Y61H)", "sequence (P01903 26-254 limits assumed, other chains not shown)": "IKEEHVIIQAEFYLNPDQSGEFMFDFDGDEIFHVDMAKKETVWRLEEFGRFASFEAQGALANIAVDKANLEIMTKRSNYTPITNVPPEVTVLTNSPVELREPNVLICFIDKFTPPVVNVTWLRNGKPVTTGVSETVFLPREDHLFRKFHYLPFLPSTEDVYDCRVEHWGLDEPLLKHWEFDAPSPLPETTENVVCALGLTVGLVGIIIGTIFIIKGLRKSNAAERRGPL", "details": "read-out: IC50 nM to purified HLA DRB1*1302"}},
  "data": [
    {"smiles": "CSCC[C@H](NC(=O)[C@H](CC(C)C)NC(=O)[C@H](CCC(=O)O)NC(=O)[C@@H](N)Cc1c[nH]c2ccccc12)C(=O)N[C@@H](CC(=O)O)C(=O)N[C@@H](CCC(=O)O)C(=O)N[C@@H](CC(=O)O)C(=O)N[C@@H](Cc1ccc(O)cc1)C(=O)N[C@@H](CCC(N)=O)C(=O)NCC(=O)N[C@@H](CCCNC(=N)N)C(=O)N[C@@H](CC(C)C)C(=O)N[C@@H](CS)C(=O)N[C@@H](CC(N)=O)C(=O)N1CCC[C@H]1C(=O)O", "note": "[Flu.PB1.616]", "values": [
      {"measurement": "IC50", "setting": "DRB1*0401", "result": 480, "unit": "nM"}
    ]},
    {"smiles": "CC[C@H](C)[C@H](NC(=O)[C@H](C)NC(=O)[C@H](CC(=O)O)NC(=O)[C@H](CC(N)=O)NC(=O)[C@@H]1CCCN1C(=O)[C@H](CCCCN)NC(=O)[C@H](CC(C)C)NC(=O)[C@@H](NC(=O)[C@@H](NC(=O)[C@H](Cc1c[nH]c2ccccc12)NC(=O)[C@H](Cc1ccccc1)NC(=O)[C@H](Cc1ccccc1)NC(=O)[C@H](CCC(=O)O)NC(=O)[C@H](CCSC)NC(=O)[C@@H](N)CCCNC(=N)N)[C@@H](C)O)[C@@H](C)CC)C(=O)O", "note": "[Flu.HA.241]", "values": [
      {"measurement": "IC50", "setting": "DRB1*0101", "result": 62, "unit": "nM"}
    ]},
    {"smiles": "CC[C@H](C)[C@H](NC(=O)CNC(=O)[C@@H](NC(=O)[C@@H](N)CCSC)[C@@H](C)CC)C(=O)N[C@@H](CC(C)C)C(=O)N1CCC[C@H]1C(=O)N[C@@H](CC(=O)O)C(=O)N[C@@H](CCSC)C(=O)N[C@H](C(=O)N1CCC[C@H]1C(=O)N[C@@H](CO)C(=O)N[C@H](C(=O)N[C@@H](CCC(=O)O)C(=O)N[C@@H](CCSC)C(=O)N[C@@H](CO)C(=O)O)[C@@H](C)O)[C@@H](C)O", "note": "[Flu.PB2.463]", "values": [
      {"measurement": "IC50", "setting": "DRB1*0401", "result": 31, "unit": "nM"}
    ]},
    {"smiles": "CC[C@H](C)[C@H](NC(=O)[C@H](CCC(=O)O)NC(=O)[C@H](CCC(N)=O)NC(=O)[C@H](CCC(=O)O)NC(=O)[C@@H](NC(=O)[C@H](CCC(=O)O)NC(=O)[C@H](Cc1ccccc1)NC(=O)[C@@H](N)CC(C)C)C(C)C)C(=O)N[C@@H](CCCNC(=N)N)C(=O)N[C@H](C(=O)N[C@@H](Cc1ccccc1)C(=O)N[C@@H](CO)C(=O)N[C@@H](Cc1ccccc1)C(=O)N[C@@H](CCC(N)=O)C(=O)N[C@@H](CC(C)C)C(=O)O)[C@@H](C)O", "note": "[Flu.NS2.182]", "values": [
      {"measurement": "IC50", "setting": "DRB1*0401", "result": 8800, "unit": "nM"}
    ]},
    {"smiles": "CC[C@H](C)[C@H](NC(=O)CNC(=O)[C@H](CCCNC(=N)N)NC(=O)[C@H](CCC(N)=O)NC(=O)[C@H](CO)NC(=O)[C@@H](NC(=O)[C@H](CC(N)=O)NC(=O)[C@H](CC(C)C)NC(=O)[C@@H](NC(=O)[C@H](CO)NC(=O)[C@@H](N)CCCNC(=N)N)[C@@H](C)CC)[C@@H](C)O)C(=O)N[C@@H](CC(C)C)C(=O)N[C@@H](CCC(=O)O)C(=O)N[C@@H](CC(=O)O)C(=O)N[C@@H](CCC(=O)O)C(=O)O", "note": "[Flu.PB1.675]", "values": [
      {"measurement": "IC50", "setting": "DRB1*0101", "result": 94, "unit": "nM"},
      {"measurement": "IC50", "setting": "DRB1*1302", "result": 71, "unit": "nM"}
    ]},
    {"smiles": "CSCC[C@H](NC(=O)[C@H](CO)NC(=O)[C@H](Cc1ccccc1)NC(=O)[C@H](CC(N)=O)NC(=O)[C@H](C)NC(=O)[C@@H](N)C(C)C)C(=O)N[C@@H](CCC(=O)O)C(=O)N[C@@H](CC(C)C)C(=O)N1CCC[C@H]1C(=O)N[C@@H](CO)C(=O)N[C@@H](Cc1ccccc1)C(=O)NCC(=O)N[C@H](C(=O)N[C@@H](CO)C(=O)NCC(=O)O)C(C)C", "note": "[Flu.PB1.505]", "values": [
      {"measurement": "IC50", "setting": "DRB1*0101", "result": 20, "unit": "nM"},
      {"measurement": "IC50", "setting": "DRB1*0401", "result": 17, "unit": "nM"}
    ]},
    {"smiles": "CC[C@H](C)[C@H](NC(=O)[C@@H](NC(=O)[C@H](CCSC)NC(=O)[C@H](CC(=O)O)NC(=O)[C@@H](NC(=O)[C@H](CC(C)C)NC(=O)[C@H](Cc1ccc(O)cc1)NC(=O)[C@H](CCCNC(=N)N)NC(=O)[C@H](CO)NC(=O)[C@H](C)N)[C@@H](C)O)[C@@H](C)O)C(=O)N[C@@H](CCC(=O)O)C(=O)N[C@@H](CCC(=O)O)C(=O)N[C@@H](CCSC)C(=O)N[C@@H](CO)C(=O)N[C@@H](CCCNC(=N)N)C(=O)O", "note": "[Flu.NS1.89]", "values": [
      {"measurement": "IC50", "setting": "DRB1*0101", "result": 6030, "unit": "nM"},
      {"measurement": "IC50", "setting": "DRB1*0401", "result": 67, "unit": "nM"}
    ]},
    {"smiles": "CC[C@H](C)[C@H](NC(=O)[C@@H](NC(=O)[C@@H](N)CC(=O)O)C(C)C)C(=O)N[C@@H](CCSC)C(=O)N[C@@H](CCC(=O)O)C(=O)N[C@H](C(=O)N[C@H](C(=O)N[C@@H](Cc1ccccc1)C(=O)N1CCC[C@H]1C(=O)N[C@@H](CC(N)=O)C(=O)N[C@@H](CCC(=O)O)C(=O)N[C@H](C(=O)NCC(=O)N[C@@H](C)C(=O)N[C@@H](CCCNC(=N)N)C(=O)O)C(C)C)C(C)C)C(C)C", "note": "[Flu.PB2.164]", "values": [
      {"measurement": "IC50", "setting": "DRB1*0401", "result": 1100, "unit": "nM"}
    ]},
    {"smiles": "CC(C)C[C@H](NC(=O)CNC(=O)[C@@H](NC(=O)[C@H](C)NC(=O)[C@H](CC(C)C)NC(=O)[C@@H](NC(=O)[C@H](CC(C)C)NC(=O)[C@H](CCCNC(=N)N)NC(=O)[C@@H](N)CC(N)=O)C(C)C)[C@@H](C)O)C(=O)N[C@@H](CCCNC(=N)N)C(=O)N[C@@H](CC(N)=O)C(=O)N[C@@H](CO)C(=O)N1CCC[C@H]1C(=O)N[C@@H](CCC(N)=O)C(=O)N[C@@H](CCCNC(=N)N)C(=O)O", "note": "[Flu.HA.325]", "values": [
      {"measurement": "IC50", "setting": "DRB1*0101", "result": 69, "unit": "nM"}
    ]},
    {"smiles": "CC[C@H](C)[C@H](NC(=O)[C@H](C)NC(=O)[C@H](CC(=O)O)NC(=O)[C@H](CC(N)=O)NC(=O)[C@@H]1CCCN1C(=O)[C@H](CCCCN)NC(=O)[C@H](CC(C)C)NC(=O)[C@@H](NC(=O)[C@@H](NC(=O)[C@@H](N)Cc1c[nH]c2ccccc12)[C@@H](C)O)[C@@H](C)CC)C(=O)N[C@@H](CC(N)=O)C(=O)N[C@@H](Cc1ccccc1)C(=O)N[C@@H](CCC(=O)O)C(=O)N[C@@H](CO)C(=O)N[C@@H](CC(N)=O)C(=O)O", "note": "[Flu.HA.246]", "values": [
      {"measurement": "IC50", "setting": "DRB1*1302", "result": 31, "unit": "nM"}
    ]},
    {"smiles": "CC(C)C[C@H](NC(=O)[C@H](Cc1c[nH]cn1)NC(=O)[C@H](CO)NC(=O)[C@@H](N)CCCNC(=N)N)C(=O)N[C@@H](CCCNC(=N)N)C(=O)N[C@@H](CC(N)=O)C(=O)N[C@@H](CC(=O)O)C(=O)N[C@H](C(=O)N[C@@H](CC(=O)O)C(=O)N[C@H](C(=O)N[C@H](C(=O)N[C@@H](CC(N)=O)C(=O)N[C@@H](Cc1ccccc1)C(=O)N[C@H](C(=O)N[C@@H](CO)C(=O)O)C(C)C)C(C)C)C(C)C)[C@@H](C)O", "note": "[Flu.PA.511]", "values": [
      {"measurement": "IC50", "setting": "DRB1*0401", "result": 200, "unit": "nM"}
    ]},
    {"smiles": "CC[C@H](C)[C@H](NC(=O)[C@H](CCC(=O)O)NC(=O)[C@H](CCSC)NC(=O)[C@H](CCC(=O)O)NC(=O)[C@H](CCC(=O)O)NC(=O)[C@@H](N)CCCCN)C(=O)N[C@H](C(=O)N[C@H](C(=O)N[C@@H](Cc1c[nH]cn1)C(=O)N[C@@H](Cc1ccccc1)C(=O)N[C@@H](CCC(N)=O)C(=O)N[C@@H](CCCNC(=N)N)C(=O)N[C@@H](CCCCN)C(=O)N[C@@H](CCCNC(=N)N)C(=O)N[C@@H](CCCNC(=N)N)C(=O)O)[C@@H](C)O)[C@@H](C)O", "note": "[Flu.PB1.179]", "values": [
      {"measurement": "IC50", "setting": "DRB1*0101", "result": 1400, "unit": "nM"}
    ]},
    {"smiles": "CC[C@H](C)[C@H](NC(=O)[C@@H](NC(=O)[C@H](CCC(=O)O)NC(=O)[C@H](CCSC)NC(=O)[C@@H](N)[C@@H](C)O)C(C)C)C(=O)N[C@@H](CCC(N)=O)C(=O)N[C@@H](CCC(N)=O)C(=O)N[C@H](C(=O)N[C@@H](CCCNC(=N)N)C(=O)N[C@H](C(=O)N[C@@H](CC(=O)O)C(=O)N[C@@H](CCCCN)C(=O)N[C@@H](CC(C)C)C(=O)N[C@H](C(=O)N[C@@H](CCC(N)=O)C(=O)O)[C@@H](C)O)C(C)C)[C@@H](C)O", "note": "[Flu.PB1.113]", "values": [
      {"measurement": "IC50", "setting": "DRB1*1302", "result": 180, "unit": "nM"}
    ]},
    {"smiles": "CC[C@H](C)[C@H](NC(=O)[C@H](CCCCN)NC(=O)[C@@H](N)Cc1c[nH]cn1)C(=O)N[C@@H](Cc1ccccc1)C(=O)N[C@@H](CCCCN)C(=O)N[C@@H](CCSC)C(=O)N[C@@H](CCC(=O)O)C(=O)N[C@@H](CCCCN)C(=O)NCC(=O)N[C@@H](CCCCN)C(=O)N[C@H](C(=O)N[C@H](C(=O)N[C@@H](CCCCN)C(=O)N[C@@H](CO)C(=O)N[C@H](C(=O)N[C@@H](CCC(=O)O)C(=O)N[C@@H](CC(C)C)C(=O)O)C(C)C)C(C)C)C(C)C", "note": "[Flu.NA.233]", "values": [
      {"measurement": "IC50", "setting": "DRB1*0101", "result": 64, "unit": "nM"}
    ]}
  ]
}
